For assay [1], the system named is S. aureus ATCC 25923. The assay is described as follows: MIC by serial dilutions in broth (visible growth). It counts as cell-based.
The subject of assay [2] is E. coli ATCC 25922. The assay is described as follows: MIC by serial dilutions in broth (visible growth). It counts as cell-based.
Procedure: (§3) The minimum inhibitory concentration (MIC) and minimum bactericidal concentration (MBC) of the antibacterial composition enriched for the light isotope zinc ^64Zne was evaluated in the experiment. […] S. aureus ATCC 25923, E. coli ATCC 25922 and P. aeruginosa ATCC 27853 were used as test cultures.
(§4) The studies were carried out using the method of serial dilutions in broth. To determine sensitivity of microorganisms to the antibacterial composition, 0.5 ml of broth was placed into each tube. The number of tubes was determined based on the desired number of dilutions and was increased by one for the “negative” control (no test composition). Series of two-fold serial dilutions of the test variants of the antibacterial composition were used and concentrations ranging from 450 mcg ^64Zne/ml to 0.000107 mcg ^64Zne/ml were obtained.
(§5) Reference test strains of S. aureus ATCC 25923, E. coli ATCC 25922 and P. aeruginosa ATCC 27853 were incubated in Mueller-Hinton liquid broth at 37° C. for 24 hours. Standard bacterial suspension equivalent to 0.5 McFarland standard diluted 100-fold with the broth was used for the inoculation of the tubes after which the concentration of microorganism in it was approximately 10^6 CFU/ml.
(§6) 0.5 ml of inoculum was added to each tube containing 0.5 ml of the appropriate dilution of a solution of the ^64Zn-enriched salt of interest. […] The final concentration of the microorganism in each tube was approximately 5×10^5 CFU/ml.
(§7) The tubes were incubated at 35° C. in air for 16-20 or 20-24 hours (depending on the bacterial strain).
(§8) To determine the presence of microorganism growth the test tubes with inoculum were viewed under transmitted light. Transmitted light was measured by spectrophotometry. The growth of culture in the presence of antibacterial compositions based on ^64Zne was compared with the reference test tube (“negative” control), containing the original inoculum and stored in the refrigerator. The MIC was determined as the lowest concentration of ^64Zne that inhibits visible growth of the microorganism. Both gram-positive (S. aureus) and gram-negative bacteria (P. aeruginosa, E. coli) were used in the experiments described below.
(§9) That is, ^64Zne in the form of a salt was compared with a composition that contains zinc with a natural distribution of isotopes. […] Relevant samples containing salt of natural zinc with EDDA and natural zinc sulfate were used for the comparison.
(§10) The following commercial antibacterial medications were used for the study: azithromycin and ceftriaxone and norfloxacin. The initial concentration of 3000 mcg/ml was used for the samples of all the above compounds. […] Serial dilutions of the above antibacterial compounds were also prepared in the same way as for the antibacterial composition of the invention. The same pathogenic strains of S. aureus ATCC 25923, E. coli ATCC 25922, P. aeruginosa ATCC 27853 were used for the study.
In assay [3] the test system is E. coli ATCC 25922. The assay is described as follows: MBC by plating tube contents on Mueller-Hinton medium. It is filed as cell-based. How it is done: (§1) To evaluate the bactericidal action of the antibacterial composition based on light isotope ^64Zne the minimum bactericidal concentration (MBC) was determined by plating out 0.1 ml of the contents of each tube containing the antibacterial composition on Mueller-Hinton medium. The incubation was at 37° C. for 24 h.
(§2) The MBC of the test samples was determined as the lowest concentration at which there was no growth on Mueller-Hinton agar medium.

Assay [4] deals with P. aeruginosa ATCC 27853. The description is as above. It is filed as cell-based. As for the experimental part:
as §1, §2

The test system of assay [5] is S. aureus ATCC 25923. Described as above. It is filed as cell-based. How it is done:
as §1, §2

Assay [6] relates to P. aeruginosa ATCC 27853. The assay is described as follows: MIC by serial dilutions in broth (visible growth).
Procedure: as §3, §4, §5, §6, §7, §8, §9, §10
Where [7] appears, read: Table 7, ^64Zne vs natural zinc.
Setting [8] is: concentration of ^64Zne, Tables 1-5.
Where [9] appears, read: Table 8, ^64Zne vs natural zinc.

Structures are written as SMILES. Converted amounts (≈) assume the structure as drawn. Like-named read-outs stand apart in the source and are kept apart here. Marks after values point to notes of the source that are not given here.

This note sets out measurements from patent US12097215B2, “Antibacterial composition and its use in treating bacterial infections” (Vector Vitale IP LLC, priority 2017, dated 2024).

As for `O=C([O-])CC(NCCNC(CC(=O)O)C(=O)O)C(=O)[O-].[64Zn+2]` (stereo not drawn) [^64Zne EDDS, ^64Zne salt of ethylenediamine-N,N′-disuccinic acid, chemical name 2-[2-[[(1)-1-carboxy-2-carboxylatoethyl]amino]ethylamino]butanedioate], the MIC against S. aureus ATCC 25923 [1] (setting [7]) came out at 0.73 zinc/ml; with S. aureus ATCC 25923 [1] (setting [8]), 0.366 µg/mL; with E. coli ATCC 25922 [2] (setting [7]), 0.18 zinc/ml; in the assay on E. coli ATCC 25922 [2] (setting [8]), 0.0229 µg/mL; with P. aeruginosa ATCC 27853 [6] (setting [7]), 5.86 zinc/ml; against P. aeruginosa ATCC 27853 [6] (setting [8]), 1.465 µg/mL. For the same molecule, the visible growth result with S. aureus ATCC 25923 [1] (^64Zne 0.00036 mcg/ml), in the assay on S. aureus ATCC 25923 [1] (^64Zne 0.00072 mcg/ml), with S. aureus ATCC 25923 [1] (^64Zne 0.0014 mcg/ml), in the assay on S. aureus ATCC 25923 [1] (^64Zne 0.0029 mcg/ml), in the assay on S. aureus ATCC 25923 [1] (^64Zne 0.0057 mcg/ml) and in the assay on S. aureus ATCC 25923 [1] (^64Zne 0.011 mcg/ml) was “+” each time. The visible growth result in the assay on S. aureus ATCC 25923 [1] (^64Zne 0.023 mcg/ml) is “+”; with S. aureus ATCC 25923 [1] (^64Zne 0.046 mcg/ml) it was “+”; with S. aureus ATCC 25923 [1] (^64Zne 0.37 mcg/ml), “−”; with S. aureus ATCC 25923 [1] (^64Zne 0.73 mcg/ml), “−”; with S. aureus ATCC 25923 [1] (^64Zne 1.46 mcg/ml), “−”; in the assay with S. aureus ATCC 25923 [1] (^64Zne 2.93 mcg/ml), “−”. The visible growth entry with S. aureus ATCC 25923 [1] (^64Zne 5.86 mcg/ml), in the assay with S. aureus ATCC 25923 [1] (^64Zne 11.72 mcg/ml), with S. aureus ATCC 25923 [1] (^64Zne 23.44 mcg/ml), in the assay on S. aureus ATCC 25923 [1] (^64Zne 46.88 mcg/ml), in the assay on S. aureus ATCC 25923 [1] (^64Zne 93.75 mcg/ml) and in the assay on S. aureus ATCC 25923 [1] (^64Zne 187.5 mcg/ml) was “−” throughout. For the same molecule, the visible growth result is given as “−” with S. aureus ATCC 25923 [1] (^64Zne 375 mcg/ml); “−” with S. aureus ATCC 25923 [1] (^64Zne 750 mcg/ml); “+” with E. coli ATCC 25922 [2] (^64Zne 0.00036 mcg/ml); “+” in the assay with E. coli ATCC 25922 [2] (^64Zne 0.00072 mcg/ml); “+” in the assay on E. coli ATCC 25922 [2] (^64Zne 0.0014 mcg/ml); “+” in the assay with E. coli ATCC 25922 [2] (^64Zne 0.0029 mcg/ml). Moreover, the visible growth result with E. coli ATCC 25922 [2] (^64Zne 0.0057 mcg/ml) was “+”; in the assay with E. coli ATCC 25922 [2] (^64Zne 0.011 mcg/ml), “+”; in the assay with E. coli ATCC 25922 [2] (^64Zne 0.023 mcg/ml), “−”; with E. coli ATCC 25922 [2] (^64Zne 0.046 mcg/ml) it was “−”; in the assay on E. coli ATCC 25922 [2] (^64Zne 0.092 mcg/ml) it was “−”; in the assay on E. coli ATCC 25922 [2] (^64Zne 0.18 mcg/ml) it was “−”. For the same molecule, the visible growth entry in the assay with E. coli ATCC 25922 [2] (^64Zne 0.37 mcg/ml), in the assay on E. coli ATCC 25922 [2] (^64Zne 0.73 mcg/ml), with E. coli ATCC 25922 [2] (^64Zne 1.46 mcg/ml), in the assay with E. coli ATCC 25922 [2] (^64Zne 2.93 mcg/ml), with E. coli ATCC 25922 [2] (^64Zne 5.86 mcg/ml) and in the assay with E. coli ATCC 25922 [2] (^64Zne 11.72 mcg/ml) was “−” each time. Further, the visible growth result in the assay with E. coli ATCC 25922 [2] (^64Zne 23.44 mcg/ml), with E. coli ATCC 25922 [2] (^64Zne 46.88 mcg/ml), in the assay on E. coli ATCC 25922 [2] (^64Zne 93.75 mcg/ml), in the assay on E. coli ATCC 25922 [2] (^64Zne 187.5 mcg/ml), in the assay on E. coli ATCC 25922 [2] (^64Zne 375 mcg/ml) and with E. coli ATCC 25922 [2] (^64Zne 750 mcg/ml) was “−” each time. Also, in the assay with E. coli ATCC 25922 [2] (^64Zne 1500 mcg/ml), the visible growth entry was “−”. Besides, the MBC against E. coli ATCC 25922 [3] (Table 6) is 2.93* mcg ^64Zne/ml; against E. coli ATCC 25922 [3] (setting [9]) it was 2.9296 mcg zinc/ml; with P. aeruginosa ATCC 27853 [4] (Table 6) it was 375 mcg ^64Zne/ml; with P. aeruginosa ATCC 27853 [4] (setting [9]) it was 375 mcg zinc/ml; against S. aureus ATCC 25923 [5] (Table 6) it was 0.73* mcg ^64Zne/ml; with S. aureus ATCC 25923 [5] (setting [9]), 0.7324 mcg zinc/ml. Moreover, in the assay with P. aeruginosa ATCC 27853 [4], the “bactericidal activity (in words)” value is “satisfactory bactericidal activity”. For the same molecule, the “bacteriostatic activity (in words)” value in the assay on P. aeruginosa ATCC 27853 [6] is listed as “best results”.

For the molecule `O=S(=O)([O-])[O-].[Zn+2]` [Natural zinc - sulfate, natural zinc sulfate, reference compound], the results for the MIC in the assay on S. aureus ATCC 25923 [1] (setting [7]), in the assay with E. coli ATCC 25922 [2] (setting [7]) and with P. aeruginosa ATCC 27853 [6] (setting [7]) were 93.75 zinc/ml, 187.5 zinc/ml and 750 zinc/ml, respectively. The MBC in the assay on E. coli ATCC 25922 [3] (setting [9]), against P. aeruginosa ATCC 27853 [4] (setting [9]) and in the assay with S. aureus ATCC 25923 [5] (setting [9]) was more than 750 mcg zinc/ml in each case.

Consider `CCn1cc(C(=O)O)c(=O)c2cc(F)c(N3CCNCC3)cc21` [norfloxacin, reference compound], for which the MIC with S. aureus ATCC 25923 [1] (Staphylococcus aureus, ATCC25923, Table 9, commercial antibacterial agents, read-out: MIC) is 11.7 µg/mL (≈ 36.7 µM); with E. coli ATCC 25922 [2] (Escherichia coli, ATCC25922, Table 9, commercial antibacterial agents, read-out: MIC), 23.4 µg/mL (≈ 73.4 µM); in the assay with P. aeruginosa ATCC 27853 [6] (Pseudomonas aeruginosa, ATCC27853), 188 µg/mL (≈ 587 µM). Further, the MBC is less than 1500 µg/mL with E. coli ATCC 25922 [3] (Escherichia coli, ATCC25922, Table 10, commercial antibacterial agents, read-out: MBC); less than 1500 µg/mL in the assay with P. aeruginosa ATCC 27853 [4] (Pseudomonas aeruginosa, ATCC27853, Table 10, commercial antibacterial agents, read-out: MBC); less than 1500 µg/mL with S. aureus ATCC 25923 [5] (Staphylococcus aureus, ATCC25923, Table 10, commercial antibacterial agents, read-out: MBC).
